Experimental data published in PMC4685510, “A Cell Biologist’s Field Guide to Aurora Kinase Inhibitors” (Frontiers in Oncology, 2015).

What was measured:
Experiment in all cases: biochemical
Format in all cases: biochemical
[1] = molecular target: T1, 363 human kinases (including Aurora A/B/C) (Homo sapiens, UniProt Q8TD19); settings: NEK9; for remaining activity at 0.1 µM: 100 nM; for remaining activity at 0.1 µM / remaining activity at 0.5 µM: read-out: % Enzyme Activity (relative to DMSO controls)
T1 sequence (Q8TD19 1-979): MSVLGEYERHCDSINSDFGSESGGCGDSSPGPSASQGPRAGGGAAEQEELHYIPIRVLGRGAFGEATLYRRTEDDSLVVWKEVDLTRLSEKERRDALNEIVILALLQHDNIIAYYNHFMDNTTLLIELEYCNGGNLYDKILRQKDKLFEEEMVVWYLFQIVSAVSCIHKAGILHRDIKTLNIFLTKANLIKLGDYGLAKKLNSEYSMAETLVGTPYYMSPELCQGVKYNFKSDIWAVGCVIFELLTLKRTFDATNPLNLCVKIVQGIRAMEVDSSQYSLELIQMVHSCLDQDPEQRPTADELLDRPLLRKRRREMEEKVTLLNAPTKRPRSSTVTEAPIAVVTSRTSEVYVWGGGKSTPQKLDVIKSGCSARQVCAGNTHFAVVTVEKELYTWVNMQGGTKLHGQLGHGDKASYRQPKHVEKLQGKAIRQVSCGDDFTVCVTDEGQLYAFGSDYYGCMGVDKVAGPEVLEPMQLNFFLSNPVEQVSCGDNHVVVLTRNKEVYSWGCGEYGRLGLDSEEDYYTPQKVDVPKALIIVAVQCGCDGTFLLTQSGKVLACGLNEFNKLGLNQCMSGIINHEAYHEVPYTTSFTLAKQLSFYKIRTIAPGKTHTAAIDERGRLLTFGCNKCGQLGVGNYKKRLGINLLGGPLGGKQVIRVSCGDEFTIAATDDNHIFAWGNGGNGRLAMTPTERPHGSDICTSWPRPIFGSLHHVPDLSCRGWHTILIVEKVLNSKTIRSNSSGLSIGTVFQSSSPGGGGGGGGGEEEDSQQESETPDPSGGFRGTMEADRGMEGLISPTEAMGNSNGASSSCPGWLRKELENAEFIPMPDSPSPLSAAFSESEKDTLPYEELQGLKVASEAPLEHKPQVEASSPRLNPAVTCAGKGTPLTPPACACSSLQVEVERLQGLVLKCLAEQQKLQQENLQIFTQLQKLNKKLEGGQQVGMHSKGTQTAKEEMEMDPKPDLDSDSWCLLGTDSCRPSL
Excerpt: (§1) However, the Aurora A/B selectivity ratios derived from our in vitro and in vivo data can be compared to prioritize inhibitors.

[2] = molecular target: T2, 363 human kinases (including Aurora A/B/C) (Homo sapiens, UniProt Q6XUX3); settings: RIPK5; for remaining activity at 0.1 µM: 100 nM; for remaining activity at 0.1 µM / remaining activity at 0.5 µM: read-out: % Enzyme Activity (relative to DMSO controls)
T2 sequence (Q6XUX3 1-929): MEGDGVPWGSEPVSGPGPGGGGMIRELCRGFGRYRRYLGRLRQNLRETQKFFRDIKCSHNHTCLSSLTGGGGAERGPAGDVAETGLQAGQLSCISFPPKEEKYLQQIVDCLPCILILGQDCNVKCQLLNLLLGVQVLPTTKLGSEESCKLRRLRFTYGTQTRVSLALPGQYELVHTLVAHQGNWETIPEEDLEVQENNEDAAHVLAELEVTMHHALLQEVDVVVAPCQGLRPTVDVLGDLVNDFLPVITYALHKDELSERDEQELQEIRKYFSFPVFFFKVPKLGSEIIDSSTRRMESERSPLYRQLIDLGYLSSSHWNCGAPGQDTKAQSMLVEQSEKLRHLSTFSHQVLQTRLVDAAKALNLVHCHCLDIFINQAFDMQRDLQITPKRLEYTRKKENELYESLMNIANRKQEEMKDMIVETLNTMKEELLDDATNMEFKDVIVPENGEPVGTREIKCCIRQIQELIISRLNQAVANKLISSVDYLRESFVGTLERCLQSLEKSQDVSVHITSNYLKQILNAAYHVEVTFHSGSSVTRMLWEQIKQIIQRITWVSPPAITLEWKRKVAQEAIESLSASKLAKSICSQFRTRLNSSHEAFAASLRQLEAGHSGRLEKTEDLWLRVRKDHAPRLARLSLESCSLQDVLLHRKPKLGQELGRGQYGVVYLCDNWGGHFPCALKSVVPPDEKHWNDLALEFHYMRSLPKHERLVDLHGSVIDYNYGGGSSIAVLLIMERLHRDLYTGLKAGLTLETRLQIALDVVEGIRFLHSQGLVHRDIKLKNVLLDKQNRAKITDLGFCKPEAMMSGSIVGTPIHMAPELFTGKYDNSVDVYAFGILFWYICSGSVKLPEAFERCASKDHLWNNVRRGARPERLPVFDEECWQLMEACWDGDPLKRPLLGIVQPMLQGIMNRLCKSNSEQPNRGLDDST
Excerpt: as §1

[3] = molecular target: 363 human kinases (including Aurora A/B/C) (Homo sapiens, UniProt Q76MJ5); settings: ERN2/IRE2, [ATP] 100 µM; for remaining activity at 0.1 µM: 100 nM; for remaining activity at 0.1 µM / remaining activity at 0.5 µM: read-out: % Enzyme Activity (relative to DMSO controls)
363 human kinases (including Aurora A/B/C) (Homo sapiens, UniProt Q76MJ5), sequence (Q76MJ5 35-926): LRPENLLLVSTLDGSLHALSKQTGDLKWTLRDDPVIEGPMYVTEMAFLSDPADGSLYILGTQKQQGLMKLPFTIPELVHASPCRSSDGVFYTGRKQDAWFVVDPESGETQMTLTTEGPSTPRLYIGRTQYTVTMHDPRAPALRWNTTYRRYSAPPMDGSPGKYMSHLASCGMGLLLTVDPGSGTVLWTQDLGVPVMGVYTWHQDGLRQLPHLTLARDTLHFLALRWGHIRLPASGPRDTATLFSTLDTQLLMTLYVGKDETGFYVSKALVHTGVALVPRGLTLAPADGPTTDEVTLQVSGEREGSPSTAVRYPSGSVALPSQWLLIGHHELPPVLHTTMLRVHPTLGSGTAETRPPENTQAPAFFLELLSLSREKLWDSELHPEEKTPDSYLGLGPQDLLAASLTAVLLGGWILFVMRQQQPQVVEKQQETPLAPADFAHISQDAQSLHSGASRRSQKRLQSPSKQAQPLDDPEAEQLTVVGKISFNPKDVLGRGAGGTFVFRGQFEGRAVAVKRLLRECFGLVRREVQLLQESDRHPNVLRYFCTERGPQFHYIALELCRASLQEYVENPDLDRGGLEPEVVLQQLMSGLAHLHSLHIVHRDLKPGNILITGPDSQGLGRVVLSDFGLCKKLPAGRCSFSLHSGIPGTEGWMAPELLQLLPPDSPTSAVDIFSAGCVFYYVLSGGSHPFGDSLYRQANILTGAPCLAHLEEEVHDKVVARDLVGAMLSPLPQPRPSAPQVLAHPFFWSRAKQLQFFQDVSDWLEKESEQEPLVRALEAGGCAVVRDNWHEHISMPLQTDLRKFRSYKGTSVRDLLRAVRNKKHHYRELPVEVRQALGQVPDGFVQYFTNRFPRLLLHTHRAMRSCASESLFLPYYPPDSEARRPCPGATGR
Excerpt: as §1

[4] = molecular target: 363 human kinases (including Aurora A/B/C) (Homo sapiens, UniProt Q8N4C8); settings: MINK/MINK1; for remaining activity at 0.1 µM: 100 nM; for remaining activity at 0.1 µM / remaining activity at 0.5 µM: read-out: % Enzyme Activity (relative to DMSO controls)
363 human kinases (including Aurora A/B/C) (Homo sapiens, UniProt Q8N4C8), sequence (Q8N4C8 whole entry): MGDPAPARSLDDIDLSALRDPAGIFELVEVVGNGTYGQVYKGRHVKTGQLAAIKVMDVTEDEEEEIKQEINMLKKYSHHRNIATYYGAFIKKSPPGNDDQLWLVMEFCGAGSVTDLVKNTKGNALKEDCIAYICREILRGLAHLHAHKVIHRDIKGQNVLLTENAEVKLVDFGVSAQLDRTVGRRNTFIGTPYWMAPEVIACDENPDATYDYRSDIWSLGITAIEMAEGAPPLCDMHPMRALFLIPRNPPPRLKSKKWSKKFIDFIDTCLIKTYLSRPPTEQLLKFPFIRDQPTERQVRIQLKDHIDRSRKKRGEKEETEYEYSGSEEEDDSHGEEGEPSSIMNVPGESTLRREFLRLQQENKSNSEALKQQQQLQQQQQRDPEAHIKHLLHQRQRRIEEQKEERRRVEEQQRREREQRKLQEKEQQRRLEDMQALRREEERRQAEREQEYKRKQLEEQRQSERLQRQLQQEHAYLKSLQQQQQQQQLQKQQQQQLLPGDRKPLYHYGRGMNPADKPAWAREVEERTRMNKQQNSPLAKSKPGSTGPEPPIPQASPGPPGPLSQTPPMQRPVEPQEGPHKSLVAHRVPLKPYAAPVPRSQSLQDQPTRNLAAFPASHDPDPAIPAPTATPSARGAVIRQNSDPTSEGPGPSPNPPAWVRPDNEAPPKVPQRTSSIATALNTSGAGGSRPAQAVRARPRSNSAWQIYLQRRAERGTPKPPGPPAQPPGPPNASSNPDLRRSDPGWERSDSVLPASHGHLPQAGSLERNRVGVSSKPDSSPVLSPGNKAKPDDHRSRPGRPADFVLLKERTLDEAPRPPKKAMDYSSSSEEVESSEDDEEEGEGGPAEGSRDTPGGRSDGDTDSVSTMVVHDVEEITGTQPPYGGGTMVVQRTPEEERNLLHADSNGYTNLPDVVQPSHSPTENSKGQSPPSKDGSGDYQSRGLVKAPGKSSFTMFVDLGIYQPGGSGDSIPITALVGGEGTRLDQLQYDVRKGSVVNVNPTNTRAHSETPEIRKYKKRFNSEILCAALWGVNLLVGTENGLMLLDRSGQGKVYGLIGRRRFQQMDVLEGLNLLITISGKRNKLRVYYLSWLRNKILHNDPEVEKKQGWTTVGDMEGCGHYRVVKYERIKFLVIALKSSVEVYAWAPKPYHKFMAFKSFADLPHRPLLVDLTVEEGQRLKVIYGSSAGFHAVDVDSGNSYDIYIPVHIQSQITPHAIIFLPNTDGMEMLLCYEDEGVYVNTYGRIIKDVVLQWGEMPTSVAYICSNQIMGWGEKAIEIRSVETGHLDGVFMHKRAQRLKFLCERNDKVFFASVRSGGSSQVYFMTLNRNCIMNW
Excerpt: as §1

[5] = molecular target: 363 human kinases (including Aurora A/B/C) (Homo sapiens, UniProt O75914); settings: PAK3; for remaining activity at 0.1 µM: 100 nM; for remaining activity at 0.1 µM / remaining activity at 0.5 µM: read-out: % Enzyme Activity (relative to DMSO controls)
363 human kinases (including Aurora A/B/C) (Homo sapiens, UniProt O75914), sequence (O75914 whole entry): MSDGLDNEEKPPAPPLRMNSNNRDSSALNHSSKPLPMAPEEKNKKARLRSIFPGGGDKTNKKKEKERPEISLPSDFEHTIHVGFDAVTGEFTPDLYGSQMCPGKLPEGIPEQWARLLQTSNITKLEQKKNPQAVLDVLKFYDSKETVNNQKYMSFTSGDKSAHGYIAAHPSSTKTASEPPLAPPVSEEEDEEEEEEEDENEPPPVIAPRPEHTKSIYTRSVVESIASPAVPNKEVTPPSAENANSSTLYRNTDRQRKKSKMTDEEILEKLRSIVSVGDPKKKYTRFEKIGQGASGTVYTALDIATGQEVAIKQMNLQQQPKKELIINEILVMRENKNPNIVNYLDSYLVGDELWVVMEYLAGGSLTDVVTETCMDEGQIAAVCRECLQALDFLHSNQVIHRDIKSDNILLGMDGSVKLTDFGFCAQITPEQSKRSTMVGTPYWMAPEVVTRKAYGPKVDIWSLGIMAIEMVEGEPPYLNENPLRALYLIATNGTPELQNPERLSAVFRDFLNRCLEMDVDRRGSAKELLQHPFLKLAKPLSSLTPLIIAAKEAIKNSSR
Excerpt: as §1

[6] = molecular target: 363 human kinases (including Aurora A/B/C) (Homo sapiens, UniProt P08631); settings: HCK; for remaining activity at 0.1 µM: 100 nM; for remaining activity at 0.1 µM / remaining activity at 0.5 µM: read-out: % Enzyme Activity (relative to DMSO controls)
363 human kinases (including Aurora A/B/C) (Homo sapiens, UniProt P08631), sequence (P08631 whole entry): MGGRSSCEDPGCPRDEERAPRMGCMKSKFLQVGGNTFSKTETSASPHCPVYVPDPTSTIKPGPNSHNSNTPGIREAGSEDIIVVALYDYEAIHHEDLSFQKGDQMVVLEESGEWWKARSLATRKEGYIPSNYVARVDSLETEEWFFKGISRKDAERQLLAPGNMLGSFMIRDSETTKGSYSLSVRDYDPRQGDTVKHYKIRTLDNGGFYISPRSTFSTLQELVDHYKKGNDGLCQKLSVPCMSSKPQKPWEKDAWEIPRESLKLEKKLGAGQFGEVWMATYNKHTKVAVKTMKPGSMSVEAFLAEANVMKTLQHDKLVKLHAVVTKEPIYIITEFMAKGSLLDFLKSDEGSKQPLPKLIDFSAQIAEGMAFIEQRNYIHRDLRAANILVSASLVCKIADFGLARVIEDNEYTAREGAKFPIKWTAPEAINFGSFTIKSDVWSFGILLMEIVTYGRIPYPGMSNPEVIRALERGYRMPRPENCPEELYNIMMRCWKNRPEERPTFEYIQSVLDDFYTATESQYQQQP
Excerpt: as §1

[7] = molecular target: T3, 363 human kinases (including Aurora A/B/C) (Homo sapiens, UniProt P41743); settings: PKCiota; for remaining activity at 0.1 µM: 100 nM; for remaining activity at 0.1 µM / remaining activity at 0.5 µM: read-out: % Enzyme Activity (relative to DMSO controls)
T3 sequence (P41743 1-596): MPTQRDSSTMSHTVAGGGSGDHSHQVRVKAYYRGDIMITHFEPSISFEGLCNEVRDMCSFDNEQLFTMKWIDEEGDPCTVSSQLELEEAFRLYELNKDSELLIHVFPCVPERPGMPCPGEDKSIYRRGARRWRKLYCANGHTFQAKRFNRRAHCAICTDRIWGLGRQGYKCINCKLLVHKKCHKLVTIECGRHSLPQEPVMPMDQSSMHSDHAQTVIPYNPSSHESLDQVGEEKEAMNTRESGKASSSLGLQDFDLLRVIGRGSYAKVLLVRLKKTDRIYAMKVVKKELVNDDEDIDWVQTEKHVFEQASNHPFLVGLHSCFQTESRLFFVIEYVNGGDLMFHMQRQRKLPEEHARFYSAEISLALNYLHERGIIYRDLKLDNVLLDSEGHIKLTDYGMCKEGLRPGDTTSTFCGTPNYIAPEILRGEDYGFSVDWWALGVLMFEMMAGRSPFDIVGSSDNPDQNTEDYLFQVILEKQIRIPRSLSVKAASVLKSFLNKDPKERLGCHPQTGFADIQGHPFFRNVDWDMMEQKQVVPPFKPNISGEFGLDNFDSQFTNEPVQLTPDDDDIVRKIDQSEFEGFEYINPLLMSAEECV
Excerpt: as §1

Row | SMILES | remaining activity at 0.1 µM [1] | remaining activity at 0.1 µM [2] | remaining activity at 0.1 µM [3] | remaining activity at 0.1 µM [4] | remaining activity at 0.1 µM [5] | remaining activity at 0.1 µM [6] | remaining activity at 0.1 µM [7] | remaining activity at 0.5 µM ([1]; 500 nM) | remaining activity at 0.5 µM ([2]; 500 nM) | remaining activity at 0.5 µM ([3]; 500 nM) | remaining activity at 0.5 µM ([4]; 500 nM) | remaining activity at 0.5 µM ([5]; 500 nM) | remaining activity at 0.5 µM ([6]; 500 nM) | remaining activity at 0.5 µM ([7]; 500 nM) | also measured
1 | CCn1cc(-c2ccnc3[nH]c(-c4cccc(CN(C)C)c4)cc23)c(-c2ccc(NC(=O)N(C)C)cc2)n1 [GSK1070916] | 83.8% | 114% | 87.3% | 78.3% | 92.5% | 102% | 99.1% | – | – | – | – | – | – | – | –
2 | O=C(O)[C@]1(Cc2cccc(Nc3nccs3)n2)CC[C@@H](Oc2cccc(Cl)c2F)CC1 [MK-5108] | 95.2% | 96.6% | 97% | 80% | 92.3% | 46.1% | 94.3% | 60.7% | 123% | 87.6% | 53.4% | 88.8% | 20.2% | 102% | –
3 | O=C(c1cccc(Cl)c1F)N1CCN(Cc2cccc(Nc3nccs3)n2)CC1 [MK-8745] | – | – | – | – | – | – | – | 96.6% | 105% | 94.5% | 86.8% | 94% | 53.9% | 98% | % Enzyme Activity (relative to DMSO controls) ([1]; 500 nM): 95.13%; % Enzyme Activity (relative to DMSO controls) ([2]; 500 nM): 103.95%; % Enzyme Activity (relative to DMSO controls) ([3]; 500 nM): 93.54%; % Enzyme Activity (relative to DMSO controls) ([4]; 500 nM): 82.81%; % Enzyme Activity (relative to DMSO controls) ([5]; 500 nM): 91.67%; % Enzyme Activity (relative to DMSO controls) ([6]; 500 nM): 52.42%; % Enzyme Activity (relative to DMSO controls) ([7]; 500 nM): 95.15%
